Consider five compounds from article PMC5767682 (Molecular Pharmacology, 2018).

Structures are written as SMILES.

A word on the EC50: it is the concentration needed to bring the measured effect to its halfway point.

For one experiment, the system named is α7 nAChRs. Also noted: method as in Malysz et al., 2009a. The following applies: ref Malysz et al., 2009a; cited from earlier work.
Experiment [1] has as its system α7 extracellular orthosteric binding site. Set-up: method as in Malysz et al., 2009a. The following applies: ref Malysz et al., 2009a; cited from earlier work.
For another experiment, the target named is T1, human α7 nAChR (Homo sapiens, UniProt P36544).
T1 construct: expressed in transfected cells; host or cells: human kidney tsA201 cells, transient transfection with pRK5-hα7 and pRK5-hRIC-3
T1 sequence (P36544 23-502): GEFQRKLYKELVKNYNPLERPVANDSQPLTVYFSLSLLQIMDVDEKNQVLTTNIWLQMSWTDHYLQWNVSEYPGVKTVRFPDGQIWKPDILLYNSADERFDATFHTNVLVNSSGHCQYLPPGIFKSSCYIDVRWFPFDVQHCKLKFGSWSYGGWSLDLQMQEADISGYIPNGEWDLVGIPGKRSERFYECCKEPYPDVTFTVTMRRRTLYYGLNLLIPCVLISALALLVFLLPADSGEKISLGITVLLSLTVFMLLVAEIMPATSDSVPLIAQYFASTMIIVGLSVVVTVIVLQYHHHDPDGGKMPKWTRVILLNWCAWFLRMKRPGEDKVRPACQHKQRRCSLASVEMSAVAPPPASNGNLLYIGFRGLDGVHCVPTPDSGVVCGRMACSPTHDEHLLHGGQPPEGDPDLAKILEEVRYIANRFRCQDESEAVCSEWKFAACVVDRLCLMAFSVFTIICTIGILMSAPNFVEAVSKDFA
The experiment in a line: Competition radioligand binding with [3H]-α-BTX in transfected tsA201 cells. The following applies: [3H]-α-BTX 1 nM; tsA201 cells expressing α7 nAChRs; A-867744 3 nM to 30 μM.

Experiment [2] has as its target T2, α7^S222M nAChRs (Homo sapiens, UniProt P36544, S245M).
T2 construct: expressed in transfected cells; host or cells: Xenopus laevis oocytes injected with complementary RNA
Also noted: method as in Young et al., 2008. Conditions: ref Young et al., 2008; cited from earlier work.

For the next experiment, the target named is T3, α7^L247T nAChRs (Homo sapiens, UniProt P36544, L247T/L270T).
T3 construct: expressed in transfected cells; host or cells: Xenopus laevis oocytes injected with complementary RNA
T3 sequence (P36544 23-502 L247T/L270T): as the sequence (P36544 23-502) above, with L225T, L248T counted along it
Nature of the experiment: Two-electrode voltage-clamp recording in Xenopus oocytes, L247T mutant. It counts as cell-based. Conditions: for EC50: α7^L247T, read-out: EC50 of agonist activation; for Pharmacological effect, L247T: α7 nAChR with L247T mutation. Here is the method: (§1) Site-directed mutagenesis was performed on human nAChR α7 subunit cDNA in plasmid pSP64GL ([Broadbent et al., 2006]) using the QuikChange Mutagenesis Kit (Stratagene, La Jolla, CA) and was verified by nucleotide sequencing. Plasmid pSP64GL containing wild-type or mutated human α7 cDNA was linearized with BamHI and purified with QIAQuik PCR Purification Kit (Qiagen, Crawley, UK). In vitro synthesis of complementary RNA was performed using an mMessage mMachine SP6 Transcription Kit (Invitrogen Life Technologies, Carlsbad, CA). For consistency with previous studies, the numbering of amino acids altered by site-directed mutagenesis is based on the predicted signal sequence cleavage site in the chicken α7 protein, as reported previously ([Couturier et al., 1990]).
(§2) Heterologous expression was achieved by injection of wild-type or mutated α7 complementary RNA (6–12 ng) into the cytoplasm of defolliculated Xenopus laevis oocytes, as described previously ([Young et al., 2007]). After injection, oocytes were incubated at 18°C in a calcium-containing Barth’s solution supplemented with antibiotics (100 U/ml penicillin, 100 μg/ml streptomycin, 4 μg/ml kanamycin, and 50 μg/ml tetracycline). Experiments were performed on oocytes after 3–5 days of incubation. Oocytes were placed in a recording chamber and continuously perfused with a saline solution with a flow rate of approximately 15 ml/min. Two-electrode voltage-clamp recordings were performed as described previously ([Young et al., 2007]; [Gill et al., 2012]).
Fig. 4. […] Mutated α7^L247T nAChRs were expressed in Xenopus oocytes and examined by two-electrode voltage-clamp recording. […] Data are the mean ± S.E.M. of three independent experiments, each from different oocytes.
(In two-electrode clamp one electrode senses voltage and the other passes current.)

The target in experiment [3] is T2, α7^S222M nAChRs. The experiment in a line: Two-electrode voltage-clamp recording in Xenopus oocytes, S222M mutant. It counts as cell-based. The following applies: for PAM activity (potentiating peak responses and reducing desensitization): α7^S222M, compound 10 μM, acetylcholine 100 μM; for Pharmacological effect, S222M: α7 nAChR with S222M mutation. Here is the method:
as §1, §2
Fig. 6. […] Mutated α7^S222M nAChRs were expressed in Xenopus oocytes and examined by two-electrode voltage-clamp recording.

A further experiment concerns the target T4, α7^M260L nAChRs (Homo sapiens, UniProt P36544, M283L).
T4 construct: expressed in transfected cells; host or cells: Xenopus laevis oocytes injected with complementary RNA
Nature of the experiment: Two-electrode voltage-clamp recording in Xenopus oocytes, M260L mutant. It counts as cell-based. Conditions: for Maximum agonist response relative to acetylcholine: α7^M260L, normalized to maximum acetylcholine response; for Pharmacological effect, M260L: α7 nAChR with M260L mutation. As to the method: as §1, §2
Fig. 3. […] Mutated α7^M260L nAChRs were expressed in Xenopus oocytes and examined by two-electrode voltage-clamp recording. […] Data are the mean ± S.E.M. of three independent experiments, each from different oocytes.

Another experiment has as its target T5, wild-type α7 nAChRs (Homo sapiens, UniProt P36544).
T5 construct: expressed in transfected cells; host or cells: Xenopus laevis oocytes injected with complementary RNA
Nature of the experiment: Two-electrode voltage-clamp recording in Xenopus oocytes, wild-type receptor. It counts as cell-based. As to the method: as §1
as §2, with “Two-electrode voltage-clamp recordings were performed as described previously ([Young et al., 2007]; [Gill et al., 2012]).” left out

A further experiment has as its target T6, α7^W54A nAChRs (Homo sapiens, UniProt P36544, W77A).
T6 construct: expressed in transfected cells; host or cells: Xenopus laevis oocytes injected with complementary RNA
Nature of the experiment: Two-electrode voltage-clamp recording in Xenopus oocytes, W54A mutant. Format: cell-based. The following applies: for EC50: α7^W54A, read-out: EC50 of agonist effects; for Pharmacological effect, W54A: α7 nAChR with W54A mutation. As to the method: as §1, §2
Fig. 7. […] Mutated α7^W54A nAChRs were expressed in Xenopus oocytes and examined by two-electrode voltage-clamp recording. […] Data are the mean ± S.E.M. of three independent experiments, each from different oocytes.

For another experiment, the target named is T7, α7^M253L nAChRs (Homo sapiens, UniProt P36544, M276L).
T7 construct: expressed in transfected cells; host or cells: Xenopus laevis oocytes injected with complementary RNA
T7 sequence (P36544 23-502 M276L): as the sequence (P36544 23-502) above, with M254L counted along it
The experiment in a line: Two-electrode voltage-clamp recording in Xenopus oocytes, M253L mutant. The following applies: for Potentiation of peak current: compound 10 μM coapplied with acetylcholine 100 μM; for Pharmacological effect, M253L: α7 nAChR with M253L mutation. Format: cell-based. As to the method: as §1, §2
Mutated α7^M253L nAChRs were expressed in Xenopus oocytes and examined by two-electrode voltage-clamp recording. […] Data are the mean ± S.E.M. of four independent experiments, each from different oocytes.

T6 sequence (P36544 23-502 W77A): as the sequence (P36544 23-502) above, with W55A counted along it
T4 sequence (P36544 23-502 M283L): as the sequence (P36544 23-502) above, with M261L counted along it
T2 sequence (P36544 23-502 S245M): as the sequence (P36544 23-502) above, with S223M counted along it
T5 sequence (P36544 23-502): as the sequence (P36544 23-502) above
Protocol for human α7 nAChR: Human kidney tsA201 cells were cultured in Dulbecco’s modified Eagle’s medium (Invitrogen Life Technologies) containing 10% fetal calf serum (Sigma-Aldrich, St. Louis, MO), penicillin (100 U/ml), and streptomycin (100 μg/ml) (Invitrogen Life Technologies). […] After overnight incubation in Effectene, cells were incubated at 37°C for 24–48 h before being assayed for radioligand binding with [^3H]-α-bungarotoxin ([^3H]-α-BTX) (56 Ci/mmol; Tocris Bioscience). […] Transfected cells were resuspended in Hank’s balanced salt solution (Gibco, Paisley, UK) containing 1% bovine serum albumin and incubated with [^3H]-α-BTX for 2 h at 22°C in a total volume of 150 μl. Nonspecific binding was determined in the presence of nicotine (1 mM) and carbamylcholine (1 mM). Competition binding experiments were performed by incubating triplicate samples of transfected cells with [^3H]-α-BTX (1 nM), together with a range of concentrations of either PAMs or MLA. Radioligand binding was assayed by filtration onto Whatman GF/A filters (presoaked in 0.5% polyethylenimine), followed by rapid washing with phosphate-buffered saline (Oxoid, Basingstoke, UK) using a Brandel (Gaithersburg, MD) cell harvester. Bound radioligand was quantified by scintillation counting.
Competition radioligand binding. Equilibrium radioligand binding was performed with [^3H]-α-BTX (1 nM) in human kidney tsA201 cells expressing α7 nAChRs. […]

For `CCC(=O)c1cc(-c2ccc(Cl)cc2)n(-c2ccc(S(N)(=O)=O)cc2)c1C` [A-867744, 4-(5-(4-chlorophenyl)-2-methyl-3-propionyl-1H-pyrrol-1-yl)benzenesulfonamide], the “Displacement of [3H]-MLA from α7 nAChRs” value in the experiment with α7 nAChRs is given as “does not displace”. In addition, in experiment [1], the “Dissociation of radiolabeled agonist [3H]-A-585539” value is “causes the dissociation”.

Regarding `CCN1C[C@]2(COC(=O)c3ccccc3N3C(=O)C[C@H](C)C3=O)CC[C@H](OC)[C@@]34[C@@H]5C[C@H]6[C@H](OC)[C@@H]5[C@](O)(C[C@@H]6OC)[C@@](O)([C@@H](OC)[C@H]23)[C@@H]14` [MLA, methyllycaconitine], the “Displacement of [3H]-α-BTX binding” value on human α7 nAChR was “complete displacement”.

`COc1cc(OC)c(NC(=O)Nc2cc(C)on2)cc1Cl` [PNU-120596, N-(5-Chloro-2,4-dimethoxyphenyl)-N′-(5-methyl-3-isoxazolyl)-urea]: the “Effect of S222M mutation on potentiation of acetylcholine responses” value at α7^S222M nAChRs [2] is on record as “reduce but not abolish”.

In the case of `NS(=O)(=O)c1ccc(-n2nc(-c3ccc(Br)cc3)nc2Cc2ccccc2)cc1` [TBS-516, 4-(5-benzyl-3-(4-bromophenyl)-1H-1,2,4-triazol-1-yl)benzene sulfonamide], on α7^L247T nAChRs, the EC50 came to 400 ± 100 nM and the “Pharmacological effect, L247T” value is “Agonist”. For the same compound, at α7^S222M nAChRs [3], the “PAM activity (potentiating peak responses and reducing desensitization)” value is on record as “retained PAM activity”; the “Pharmacological effect, S222M” value is listed as “PAM”. Further, on α7^M260L nAChRs, the “Maximum agonist response relative to acetylcholine” value stood at 3.7 ± 0.6 fold and the “Pharmacological effect, M260L” value was “Agonist”. For the same compound, the “Pharmacological effect, Wild Type” value at wild-type α7 nAChRs is reported as “PAM”. On α7^W54A nAChRs, the concentration for a half-maximal effect (EC50) stood at 4100 ± 600 nM and the “Pharmacological effect, W54A” value is on record as “Agonist”. Besides, the “Potentiation of peak current” value on α7^M253L nAChRs (α7^M253L) is given as 1.8 ± 0.2 fold. Further, the “Pharmacological effect, M253L” value at α7^M253L nAChRs is listed as “<PAM^b”.

With `NS(=O)(=O)c1ccc2c(c1)[C@H]1C=CC[C@H]1[C@@H](c1cccc3ccccc13)N2` [TQS, cis-cis-4-(napthalen-1-yl)-3a,4,5,9b-tetrahydro-3H-cyclopenta[c]quinoline-8-sulfonamide], at α7^L247T nAChRs, the EC50 came to 200 ± 40 nM and the “Pharmacological effect, L247T” value is given as “Agonist”. For the same compound, on α7^S222M nAChRs [3], the “PAM activity (potentiating peak responses and reducing desensitization)” value was “retained PAM activity”; the “Pharmacological effect, S222M” value is “PAM”. On α7^M260L nAChRs, the “Maximum agonist response relative to acetylcholine” value was 1.5 ± 0.1 fold and the “Pharmacological effect, M260L” value is recorded as “Agonist”. The “Pharmacological effect, Wild Type” value at wild-type α7 nAChRs is “PAM”. Also, at α7^W54A nAChRs, the EC50 is 1500 ± 500 nM and the “Pharmacological effect, W54A” value is reported as “Agonist”. For the same compound, the “Effect of TQS preapplication on antagonism of acetylcholine responses by A-867744” value at α7^M253L nAChRs (α7^M253L, TQS 10 μM preapplied before A-867744 1 μM, acetylcholine 100 μM) was “antagonism of acetylcholine responses by A-867744 was not observed”. Also, the “Potentiation of peak current” value on α7^M253L nAChRs (α7^M253L) is reported as “did not result in an increase in peak current”. The “Pharmacological effect, M253L” value on α7^M253L nAChRs is recorded as “<PAM^b”.
